Structures can show the parent of a compound that is named as a salt.

The target of one test is JAK2 (Homo sapiens, UniProt O60674). The settings on record: cited from earlier work.
The next test concerns the target T1, JAK3 (Homo sapiens, UniProt P52333).
T1 sequence (P52333 1-1124): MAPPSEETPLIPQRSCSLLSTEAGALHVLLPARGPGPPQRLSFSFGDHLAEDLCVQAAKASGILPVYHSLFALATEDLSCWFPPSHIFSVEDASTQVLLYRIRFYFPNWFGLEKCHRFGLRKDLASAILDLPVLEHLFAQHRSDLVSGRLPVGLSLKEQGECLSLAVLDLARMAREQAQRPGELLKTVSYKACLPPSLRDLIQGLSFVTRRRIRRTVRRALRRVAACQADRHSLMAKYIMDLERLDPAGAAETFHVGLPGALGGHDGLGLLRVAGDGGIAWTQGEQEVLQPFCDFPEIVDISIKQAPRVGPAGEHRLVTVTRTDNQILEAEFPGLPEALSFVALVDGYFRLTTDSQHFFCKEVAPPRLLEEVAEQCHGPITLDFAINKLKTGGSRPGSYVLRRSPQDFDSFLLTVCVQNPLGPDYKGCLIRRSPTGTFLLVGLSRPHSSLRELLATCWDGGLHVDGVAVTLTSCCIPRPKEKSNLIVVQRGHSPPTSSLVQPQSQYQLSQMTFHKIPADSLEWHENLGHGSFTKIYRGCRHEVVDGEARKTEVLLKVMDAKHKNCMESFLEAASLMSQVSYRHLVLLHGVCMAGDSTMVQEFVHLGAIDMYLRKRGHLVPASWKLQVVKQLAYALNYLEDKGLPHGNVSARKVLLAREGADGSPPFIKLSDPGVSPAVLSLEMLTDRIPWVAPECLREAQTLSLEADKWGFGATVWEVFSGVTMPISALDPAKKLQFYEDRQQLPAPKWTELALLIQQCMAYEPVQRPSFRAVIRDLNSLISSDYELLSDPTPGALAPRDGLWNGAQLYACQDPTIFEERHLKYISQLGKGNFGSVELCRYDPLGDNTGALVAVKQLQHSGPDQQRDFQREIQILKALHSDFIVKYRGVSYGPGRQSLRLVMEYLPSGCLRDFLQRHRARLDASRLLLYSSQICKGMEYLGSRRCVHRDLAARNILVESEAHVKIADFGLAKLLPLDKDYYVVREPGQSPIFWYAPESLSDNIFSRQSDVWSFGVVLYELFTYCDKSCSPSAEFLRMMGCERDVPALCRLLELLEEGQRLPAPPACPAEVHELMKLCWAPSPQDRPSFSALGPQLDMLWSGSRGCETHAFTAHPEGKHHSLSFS
The following applies: cited from earlier work.

Another test deals with TYK2 (Homo sapiens, UniProt P29597). The settings on record: cited from earlier work.
For another test, the target named is JAK1 (Homo sapiens, UniProt P23458). The following applies: cited from earlier work.
The next test deals with 19 other tested kinases. The settings on record: cited from earlier work.
Test [1] deals with mTOR (Homo sapiens, UniProt P42345). The settings on record: cited from earlier work.
The next test has as its system PKC (Rat brain). The following applies: cited from earlier work.
A further test deals with PI3K isoforms. The following applies: cited from earlier work.
In test [2] the test system is panel of 38 non-JAK kinases. The following applies: cited from earlier work.
The test system of test [3] is Vps34, AKT, PDK1, p70S6K, MEK, ERK, p38, or JNK. The settings on record: cited from earlier work.
Test [4] addresses T2, mTOR (Homo sapiens, UniProt P42345+P62942).
T2 construct: endogenous in cells; host or cells: HT-1080 cell line
The settings on record: cited from earlier work.

The next test addresses RET (Homo sapiens, UniProt P07949). The settings on record: cell-free assays; cited from earlier work.
For the next test, the target named is T3, Flt3 (Homo sapiens, UniProt P36888).
T3 sequence (P36888 27-993): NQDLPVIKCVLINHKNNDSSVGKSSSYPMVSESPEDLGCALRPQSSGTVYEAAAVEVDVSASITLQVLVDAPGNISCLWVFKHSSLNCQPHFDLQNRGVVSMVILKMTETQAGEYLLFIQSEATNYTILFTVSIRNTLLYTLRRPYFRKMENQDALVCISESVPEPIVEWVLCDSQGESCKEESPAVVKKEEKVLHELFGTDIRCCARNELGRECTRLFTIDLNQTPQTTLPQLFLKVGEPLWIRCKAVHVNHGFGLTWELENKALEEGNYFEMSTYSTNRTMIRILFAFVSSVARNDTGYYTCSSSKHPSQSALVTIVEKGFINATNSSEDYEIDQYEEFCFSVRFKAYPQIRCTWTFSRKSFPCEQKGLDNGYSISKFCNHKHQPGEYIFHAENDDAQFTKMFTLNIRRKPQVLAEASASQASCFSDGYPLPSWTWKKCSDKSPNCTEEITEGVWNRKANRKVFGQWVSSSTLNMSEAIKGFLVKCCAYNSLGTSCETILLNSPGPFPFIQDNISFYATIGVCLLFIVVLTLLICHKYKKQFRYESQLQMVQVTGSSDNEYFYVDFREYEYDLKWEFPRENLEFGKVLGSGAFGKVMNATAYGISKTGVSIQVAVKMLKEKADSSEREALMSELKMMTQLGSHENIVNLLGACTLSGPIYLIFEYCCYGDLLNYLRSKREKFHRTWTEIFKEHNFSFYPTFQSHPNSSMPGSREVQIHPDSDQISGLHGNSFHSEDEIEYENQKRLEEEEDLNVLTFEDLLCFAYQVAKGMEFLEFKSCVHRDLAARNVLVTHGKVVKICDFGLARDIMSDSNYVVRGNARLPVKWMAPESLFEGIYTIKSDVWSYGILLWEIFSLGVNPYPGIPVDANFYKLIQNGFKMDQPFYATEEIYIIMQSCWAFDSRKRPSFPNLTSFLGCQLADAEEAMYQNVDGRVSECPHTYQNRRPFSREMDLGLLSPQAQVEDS
The settings on record: cell-free assays; cited from earlier work.

Test [5] has as its system UBC-Cre-Clec16a^loxP KO mice. The test can be described thus: Tofacitinib treatment of Clec16a KO mice: fat, weight, survival. In kind it is in vivo.
Test [6] concerns cytokines and chemokine from plasma of Clec16a KO mice. Put plainly: Plasma cytokines and chemokines, Mouse Cytokine Array panel. The class given is in vivo. The source says:
FIG. 11. […]. The representative graph is quantification of cytokines and chemokine from plasma of Control (Vehicle), KO and KO+Tofacitinib inhibitor treated mice using the Mouse Cytokine Array panel.
To gain insight in the inflammatory mechanism involved in the development, progression and pathogenesis of various autoimmune diseases, we profiled plasma from control, KO and […] KO mice for cytokines and chemokine using Mouse Cytokine Array panel.

For test [7], the system named is HSL, STATs, AMPK, mTOR, P62, LC3I/II and SOCS-1 expression. Put plainly: Immunoblot analysis on gWAT from control, KO and Tofacitinib treated mice. The class given is in vivo. The source says:
To examine the signaling mechanism underlying the rescue, we performed immunoblot analysis on gWAT isolated from control, KO and Tofacitinib treated mice. We evaluated HSL, STATs, AMPK, mTOR, P62, LC3I/II and SOCS-1 expression (FIG. 10C). […]. […]. Over-activation of mTOR indicates inhibition of autophagy/lipophagy as evident by significant accumulation of P62 in CLEC16A KO mice. […].
(In western blotting, separated proteins are transferred to a membrane and probed.)

The subject of the next test is majority of kinases. The following applies: tested at 1 μM; cited from earlier work.
Another test relates to STAT3. The settings on record: HEL cells; cited from earlier work.
Setting [8] is: gWAT immunoblot, CLEC16A KO mice.

Chain of JAK2 (O60674 whole entry, species assumed): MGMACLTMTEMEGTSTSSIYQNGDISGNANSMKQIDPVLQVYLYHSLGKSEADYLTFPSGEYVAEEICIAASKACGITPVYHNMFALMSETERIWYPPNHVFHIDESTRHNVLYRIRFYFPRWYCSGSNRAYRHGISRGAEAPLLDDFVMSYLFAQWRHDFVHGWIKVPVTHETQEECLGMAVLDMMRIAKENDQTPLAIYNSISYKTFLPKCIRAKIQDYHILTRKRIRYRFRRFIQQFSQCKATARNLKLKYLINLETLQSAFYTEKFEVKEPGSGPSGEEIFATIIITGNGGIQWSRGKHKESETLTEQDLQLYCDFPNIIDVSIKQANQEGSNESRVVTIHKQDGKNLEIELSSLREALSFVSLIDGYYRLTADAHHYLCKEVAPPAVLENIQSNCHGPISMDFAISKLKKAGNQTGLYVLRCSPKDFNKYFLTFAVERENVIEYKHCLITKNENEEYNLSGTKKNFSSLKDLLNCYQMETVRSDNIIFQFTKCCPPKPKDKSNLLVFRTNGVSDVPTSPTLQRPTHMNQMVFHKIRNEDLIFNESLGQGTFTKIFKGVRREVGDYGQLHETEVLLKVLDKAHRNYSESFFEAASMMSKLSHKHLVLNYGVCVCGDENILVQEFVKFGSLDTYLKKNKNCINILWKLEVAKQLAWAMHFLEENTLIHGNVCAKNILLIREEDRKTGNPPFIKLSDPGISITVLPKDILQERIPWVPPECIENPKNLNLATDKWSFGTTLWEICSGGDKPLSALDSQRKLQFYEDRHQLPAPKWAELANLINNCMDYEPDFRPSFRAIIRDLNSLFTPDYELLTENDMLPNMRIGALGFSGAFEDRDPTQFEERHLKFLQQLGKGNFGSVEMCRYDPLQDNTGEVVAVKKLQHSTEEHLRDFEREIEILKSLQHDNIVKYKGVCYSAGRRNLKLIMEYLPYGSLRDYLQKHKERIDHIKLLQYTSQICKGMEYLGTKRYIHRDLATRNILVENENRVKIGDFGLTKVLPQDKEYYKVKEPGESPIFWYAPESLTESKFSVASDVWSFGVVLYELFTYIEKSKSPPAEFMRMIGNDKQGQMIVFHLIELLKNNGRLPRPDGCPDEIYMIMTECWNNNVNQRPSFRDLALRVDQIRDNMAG
Chain of TYK2 (P29597 whole entry): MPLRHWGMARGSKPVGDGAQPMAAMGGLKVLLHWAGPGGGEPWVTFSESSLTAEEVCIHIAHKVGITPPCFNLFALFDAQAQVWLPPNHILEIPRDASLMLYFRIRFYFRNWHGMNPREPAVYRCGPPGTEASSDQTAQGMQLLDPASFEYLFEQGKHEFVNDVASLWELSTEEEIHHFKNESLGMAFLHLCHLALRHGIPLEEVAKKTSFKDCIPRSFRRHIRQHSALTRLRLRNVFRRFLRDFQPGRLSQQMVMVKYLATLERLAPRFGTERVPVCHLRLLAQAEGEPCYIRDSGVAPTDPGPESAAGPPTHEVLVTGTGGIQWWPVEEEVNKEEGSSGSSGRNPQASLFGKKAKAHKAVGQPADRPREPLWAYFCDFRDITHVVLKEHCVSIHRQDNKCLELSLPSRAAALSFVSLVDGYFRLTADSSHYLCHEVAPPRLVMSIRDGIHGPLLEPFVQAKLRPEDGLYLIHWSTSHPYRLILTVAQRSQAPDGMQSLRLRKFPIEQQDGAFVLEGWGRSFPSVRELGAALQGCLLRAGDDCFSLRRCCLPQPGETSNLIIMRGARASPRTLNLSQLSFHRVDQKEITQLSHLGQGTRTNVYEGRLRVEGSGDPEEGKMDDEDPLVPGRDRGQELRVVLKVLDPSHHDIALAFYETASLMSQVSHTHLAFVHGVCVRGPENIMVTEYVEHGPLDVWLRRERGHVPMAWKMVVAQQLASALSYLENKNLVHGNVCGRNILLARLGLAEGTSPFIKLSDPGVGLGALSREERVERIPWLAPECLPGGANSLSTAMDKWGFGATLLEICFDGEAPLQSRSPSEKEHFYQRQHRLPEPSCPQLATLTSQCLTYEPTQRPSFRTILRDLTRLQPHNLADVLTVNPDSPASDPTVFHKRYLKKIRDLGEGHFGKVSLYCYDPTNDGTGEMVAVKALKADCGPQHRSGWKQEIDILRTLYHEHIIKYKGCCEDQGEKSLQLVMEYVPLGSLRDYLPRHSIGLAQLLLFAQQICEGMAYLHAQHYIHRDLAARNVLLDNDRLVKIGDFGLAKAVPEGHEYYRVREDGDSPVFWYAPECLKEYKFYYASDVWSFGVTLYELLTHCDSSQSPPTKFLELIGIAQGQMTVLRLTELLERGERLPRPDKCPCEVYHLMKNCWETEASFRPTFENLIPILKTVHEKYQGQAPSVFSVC
Chain of JAK1 (P23458 whole entry, species assumed): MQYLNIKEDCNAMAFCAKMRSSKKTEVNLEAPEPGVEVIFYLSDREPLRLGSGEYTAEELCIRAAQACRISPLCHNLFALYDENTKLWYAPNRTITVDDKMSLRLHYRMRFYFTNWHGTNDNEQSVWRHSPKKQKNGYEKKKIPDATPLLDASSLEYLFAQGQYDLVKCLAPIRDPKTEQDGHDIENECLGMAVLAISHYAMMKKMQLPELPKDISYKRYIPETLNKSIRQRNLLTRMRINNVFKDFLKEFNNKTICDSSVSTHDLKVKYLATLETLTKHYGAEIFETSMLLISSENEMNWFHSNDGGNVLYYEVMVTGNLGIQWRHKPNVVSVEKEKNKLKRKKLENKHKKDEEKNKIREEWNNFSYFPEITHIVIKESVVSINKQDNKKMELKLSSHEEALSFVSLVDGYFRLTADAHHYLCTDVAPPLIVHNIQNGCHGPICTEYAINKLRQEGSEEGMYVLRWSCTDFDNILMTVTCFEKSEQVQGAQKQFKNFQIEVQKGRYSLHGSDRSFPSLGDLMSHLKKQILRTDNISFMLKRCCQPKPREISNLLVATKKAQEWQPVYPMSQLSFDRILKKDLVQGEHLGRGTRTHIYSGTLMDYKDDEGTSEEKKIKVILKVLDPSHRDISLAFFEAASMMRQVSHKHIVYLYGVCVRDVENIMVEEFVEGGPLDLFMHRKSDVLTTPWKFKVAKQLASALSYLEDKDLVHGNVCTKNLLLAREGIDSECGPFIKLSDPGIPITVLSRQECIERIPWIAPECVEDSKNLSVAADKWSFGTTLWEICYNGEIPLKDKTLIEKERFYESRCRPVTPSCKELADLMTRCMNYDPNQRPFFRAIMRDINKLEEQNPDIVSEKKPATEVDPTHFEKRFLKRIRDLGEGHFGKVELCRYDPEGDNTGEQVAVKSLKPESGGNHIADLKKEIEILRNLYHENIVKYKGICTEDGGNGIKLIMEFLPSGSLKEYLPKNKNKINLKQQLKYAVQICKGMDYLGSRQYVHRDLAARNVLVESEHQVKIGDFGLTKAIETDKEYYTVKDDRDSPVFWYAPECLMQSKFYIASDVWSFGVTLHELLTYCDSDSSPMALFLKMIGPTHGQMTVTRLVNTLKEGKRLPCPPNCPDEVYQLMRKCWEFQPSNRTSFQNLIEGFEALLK
Chain of RET (P07949 29-1114, species assumed): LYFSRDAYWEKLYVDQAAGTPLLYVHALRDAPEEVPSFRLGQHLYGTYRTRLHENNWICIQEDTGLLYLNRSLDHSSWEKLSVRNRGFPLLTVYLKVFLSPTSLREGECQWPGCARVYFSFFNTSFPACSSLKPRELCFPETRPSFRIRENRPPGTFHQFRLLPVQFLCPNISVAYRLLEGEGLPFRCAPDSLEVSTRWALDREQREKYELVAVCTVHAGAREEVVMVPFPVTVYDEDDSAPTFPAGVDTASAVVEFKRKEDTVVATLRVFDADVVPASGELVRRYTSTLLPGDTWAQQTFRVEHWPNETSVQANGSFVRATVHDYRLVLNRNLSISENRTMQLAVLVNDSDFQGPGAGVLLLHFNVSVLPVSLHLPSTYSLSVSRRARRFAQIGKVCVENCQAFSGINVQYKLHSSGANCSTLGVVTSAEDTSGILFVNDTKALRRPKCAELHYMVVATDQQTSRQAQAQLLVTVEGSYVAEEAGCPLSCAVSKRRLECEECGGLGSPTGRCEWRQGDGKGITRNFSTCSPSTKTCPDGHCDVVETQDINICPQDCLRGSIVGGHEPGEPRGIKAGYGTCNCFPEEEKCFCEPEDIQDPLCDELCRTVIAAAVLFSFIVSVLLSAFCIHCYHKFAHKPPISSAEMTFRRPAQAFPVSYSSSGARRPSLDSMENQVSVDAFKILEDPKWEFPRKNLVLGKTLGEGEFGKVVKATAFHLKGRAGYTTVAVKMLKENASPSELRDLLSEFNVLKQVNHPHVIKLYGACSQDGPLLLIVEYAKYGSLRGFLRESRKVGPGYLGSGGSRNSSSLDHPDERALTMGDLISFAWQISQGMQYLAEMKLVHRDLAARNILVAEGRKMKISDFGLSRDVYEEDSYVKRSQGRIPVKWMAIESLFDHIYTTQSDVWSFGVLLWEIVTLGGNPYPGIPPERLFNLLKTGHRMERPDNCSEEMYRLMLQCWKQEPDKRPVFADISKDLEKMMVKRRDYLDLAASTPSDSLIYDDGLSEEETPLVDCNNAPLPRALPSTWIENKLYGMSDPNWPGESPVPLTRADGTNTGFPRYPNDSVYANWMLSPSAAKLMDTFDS
T2 sequence (Q9BVC4 whole entry): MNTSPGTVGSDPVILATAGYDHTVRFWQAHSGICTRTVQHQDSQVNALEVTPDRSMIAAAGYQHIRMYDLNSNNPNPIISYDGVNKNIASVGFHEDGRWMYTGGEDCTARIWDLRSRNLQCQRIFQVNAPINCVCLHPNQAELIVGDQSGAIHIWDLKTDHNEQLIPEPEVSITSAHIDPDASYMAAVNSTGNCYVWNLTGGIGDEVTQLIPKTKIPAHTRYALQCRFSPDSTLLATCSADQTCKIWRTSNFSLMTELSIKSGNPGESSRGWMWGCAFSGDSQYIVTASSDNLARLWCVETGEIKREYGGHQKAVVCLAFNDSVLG
T2 sequence (P62942 2-108): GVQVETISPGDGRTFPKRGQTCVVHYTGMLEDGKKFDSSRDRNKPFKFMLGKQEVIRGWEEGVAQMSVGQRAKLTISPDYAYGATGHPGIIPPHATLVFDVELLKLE

One may read the IC50 as the concentration that inhibits the measured activity by half. Consider `Cc1cc(Nc2nc(N[C@@H](C)c3ccc(F)cc3)c(C#N)cc2F)n[nH]1` [AZ 960], for which, at JAK2, the IC50 was less than 3 nM. On JAK3, the “selectivity for JAK2 versus JAK3” value is reported as 3 fold.
On to `CCn1c(C(=O)N(C2CC2)C2CC2)cc2c3c(ncn3C)c(Nc3cc(C)n(C)n3)nc21` [BMS-911543], for which the “selectivity for JAK2 versus TYK2” value at TYK2 is recorded as 65 fold. At JAK1, the “selectivity for JAK2 versus JAK1” value is given as roughly 350 fold. On JAK3, the “selectivity for JAK2 versus JAK3” value was 75 fold.
For `CN1CCN(c2cccc(Nc3nc4c(-c5ccc(S(C)(=O)=O)cc5)cccn4n3)c2)CC1` [CEP33779], the concentration for half-maximal inhibition (IC50) at JAK2 was 1.8 nM. In addition, at TYK2, the “selectivity for JAK2 versus TYK2” value is given as greater than 800 fold. In addition, at JAK1, the “selectivity for JAK2 versus JAK1” value was greater than 40 fold.
Consider `CCS(=O)(=O)N1CCN(c2ccc(Nc3ncc(C(N)=O)c(NC4CC4)n3)cc2)CC1` [Cerdulatinib], for which, in the test on 19 other tested kinases, the concentration for half-maximal inhibition (IC50) is less than 200 nM.
Take `CO[C@H]1C[C@@H]2CC[C@@H](C)[C@@](O)(O2)C(=O)C(=O)N2CCCC[C@H]2C(=O)O[C@H]([C@H](C)C[C@@H]2CC[C@@H](OCCO)[C@H](OC)C2)CC(=O)[C@H](C)/C=C(\C)[C@@H](O)[C@@H](OC)C(=O)[C@H](C)C[C@H](C)/C=C/C=C/C=C/1C` [Everolimus]: the 50% inhibitory concentration (IC50) at mTOR [1] was 1.6 to 2.4 nM.
As for `N#Cc1ccc(COc2ccc(-c3cccc4nc(NC(=O)C5CC5)nn34)cc2)cn1` [GLPG0634 analogue], the IC50 on JAK2 is 28 nM; on TYK2, 116 nM; at JAK1, 10 nM; on JAK3, 810 nM.
Turning to `Cn1c2ccccc2c2c3c(c4c5ccccc5n(CCC#N)c4c21)CNC3=O` [Go6976], the 50% inhibitory concentration (IC50) in the test with PKC (Rat brain) was 7.9 nM.
`COc1ccc(-c2ccc3c(N4CCOCC4)nc(N4C[C@@H](C)O[C@@H](C)C4)nc3n2)cc1CO` [KU-0063794]: in the test on PI3K isoforms, the “effect on PI3Ks” value was “no effect”.
Take `CNS(=O)(=O)C[C@H]1CC[C@H](N(C)c2ncnc3[nH]ccc23)CC1` [Oclacitinib]: in test [2], the “inhibition of a panel of 38 non-JAK kinases” value is listed as “does not inhibit”.
As for `COc1ccc(-c2cc3c(C)nc(N)nc3n([C@H]3CC[C@H](OCCO)CC3)c2=O)cn1` [PF-04691502], the “activity against Vps34, AKT, PDK1, p70S6K, MEK, ERK, p38, or JNK” value in test [3] is reported as “little activity”.
As for `CO[C@H]1C[C@@H]2CC[C@@H](C)[C@@](O)(O2)C(=O)C(=O)N2CCCC[C@H]2C(=O)O[C@H]([C@H](C)C[C@@H]2CC[C@@H](OP(C)(C)=O)[C@H](OC)C2)CC(=O)[C@H](C)/C=C(\C)[C@@H](O)[C@@H](OC)C(=O)[C@H](C)C[C@H](C)/C=C/C=C/C=C/1C` [Ridaforolimus], at mTOR [4], the IC50 is 0.2 nM.
For `Cc1cnc(Nc2ccc(N3CCN(C)CC3)cc2)nc1Nc1cccc(S(=O)(=O)NC(C)(C)C)c1` [TG101209], the IC50 at RET was 17 nM; on Flt3, 25 nM.
Regarding `C[C@@H]1CCN(C(=O)CC#N)C[C@@H]1N(C)c1ncnc2[nH]ccc12` [Tofacitinib], in test [5], the “lipodystrophic (inflammatory) phenotype” value is listed as “partially rescues”. In addition, in test [5] (Tofacitinib treatment), the “fat and weight loss” value is listed as “significantly rescued”; the survival entry is “improves”. In test [6] (plasma, KO+Tofacitinib treated mice, FIG. 11), the “CLEC16A knockout inflammatory phenotype (cytokines/chemokine levels)” value is “attenuated”. The autophagy/lipophagy defect entry in [7] (gWAT immunoblot (P62), CLEC16A KO mice) was “rescues”. In [7] (setting [8]), the SOCS1 expression result was “significantly reversed”; the “p-STAT1 and p-STAT3” value was “downregulating the p-STAT1 and p-STAT3 to normal levels comparable to control”; the “phosphorylation of ACC” value is “promoted”; the “phosphorylation of mTOR” value is listed as “reversal”. Also, the “upregulated p-AMPK” value in test [7] (setting [8]) is given as “significantly reduced”. Also, the “phospho-HSL (p-HSL)” value in [7] (gWAT immunoblot, CLEC16A KO+Tofacitinib mice) is “significant reversal”.
Consider `N#CC(=C(/N)Sc1ccccc1N)/C(C#N)=C(\N)Sc1ccccc1N` [U0126], for which the “up regulated cytokines and chemokines” value in test [6] (plasma of U0126-treated KO mice) was “reversed”.
For the compound `CNC(=O)c1cccc(-c2ccc3c(N4CCOC[C@@H]4C)nc(N4CCOC[C@@H]4C)nc3n2)c1` [Vistusertib], the “binding to the majority of kinases” value with majority of kinases is “no or weak binding”.
Regarding `COc1cc2ncnc(Nc3ccc(O)c(Br)c3)c2cc1OC` [WHI-P154], the “activity against JAK2” value at JAK2 is given as “no activity”. Further, the “activity against JAK1” value on JAK1 is on record as “no activity”.
Take `C[C@H](NC(=O)/C(C#N)=C/c1cccc(Br)n1)c1ccccc1` [WP1066]: the IC50 with STAT3 was 2430 nM.
Regarding `CC(C)N(CCC(=O)c1ccc2ccccc2c1)Cc1ccccc1` [ZM 39923 HCl], at JAK2, the “activity against JAK2” value is “almost no activity”.

The values above are taken from US20230304018A1, “COMPOSITIONS AND METHODS FOR ENHANCING WEIGHT LOSS” (The Children's Hospital of Philadelphia, priority 2017, published 2023).
